Experimental data as given in publication PMC4634863, “A Putative Non-Canonical Ras-Like GTPase from P. falciparum: Chemical Properties and Characterization of the Protein” (PLoS ONE, 2015).

Molecular target: T1, PfG (Plasmodium falciparum, UniProt O77338)
T1 construct: gene PF3D7_0313500
T1 sequence (O77338 1-911): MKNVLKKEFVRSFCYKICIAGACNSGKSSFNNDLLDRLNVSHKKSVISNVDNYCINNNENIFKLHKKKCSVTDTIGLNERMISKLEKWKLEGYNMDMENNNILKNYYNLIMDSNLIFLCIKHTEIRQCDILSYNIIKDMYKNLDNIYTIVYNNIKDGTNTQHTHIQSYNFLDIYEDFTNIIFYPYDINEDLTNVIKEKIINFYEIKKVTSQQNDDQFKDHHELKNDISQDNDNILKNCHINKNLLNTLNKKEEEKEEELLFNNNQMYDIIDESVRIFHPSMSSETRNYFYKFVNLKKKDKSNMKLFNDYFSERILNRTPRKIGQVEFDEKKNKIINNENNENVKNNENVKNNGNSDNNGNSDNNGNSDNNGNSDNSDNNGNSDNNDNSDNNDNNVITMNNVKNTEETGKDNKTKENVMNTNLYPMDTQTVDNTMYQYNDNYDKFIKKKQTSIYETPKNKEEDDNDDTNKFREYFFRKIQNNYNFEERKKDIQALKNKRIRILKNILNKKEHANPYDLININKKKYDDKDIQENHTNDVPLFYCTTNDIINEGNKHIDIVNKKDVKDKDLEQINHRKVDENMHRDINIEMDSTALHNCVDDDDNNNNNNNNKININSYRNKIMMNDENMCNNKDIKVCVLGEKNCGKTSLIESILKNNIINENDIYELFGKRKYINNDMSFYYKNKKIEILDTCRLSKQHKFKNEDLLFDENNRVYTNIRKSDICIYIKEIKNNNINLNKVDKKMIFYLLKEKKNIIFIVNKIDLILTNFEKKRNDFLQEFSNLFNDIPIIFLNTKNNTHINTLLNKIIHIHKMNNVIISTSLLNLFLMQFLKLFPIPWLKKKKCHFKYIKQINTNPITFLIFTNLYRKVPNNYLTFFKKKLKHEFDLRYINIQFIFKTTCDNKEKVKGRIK
Assay: fluorescence emission on binding, […] s time courses
Conditions: labelled compound; reversible nucleotide binding, unit printed as nmol (nM probably meant)

BODIPY® FL GTPγS
dissociation constant (Kd): 1.77 ± 0.36 nmol
